Experimental data: US6583180B2, “Glucocorticoid receptor modulators” (Abbott Laboratories, priority 2001, dated 2003)

Target: T1, Human glucocorticoid receptors (Homo sapiens, UniProt P04150)
T1 construct: made in house; host or cells: Sf9 insect cells, recombinant baculovirus (BAC-TO-BAC)
T1 sequence (P04150 1-777): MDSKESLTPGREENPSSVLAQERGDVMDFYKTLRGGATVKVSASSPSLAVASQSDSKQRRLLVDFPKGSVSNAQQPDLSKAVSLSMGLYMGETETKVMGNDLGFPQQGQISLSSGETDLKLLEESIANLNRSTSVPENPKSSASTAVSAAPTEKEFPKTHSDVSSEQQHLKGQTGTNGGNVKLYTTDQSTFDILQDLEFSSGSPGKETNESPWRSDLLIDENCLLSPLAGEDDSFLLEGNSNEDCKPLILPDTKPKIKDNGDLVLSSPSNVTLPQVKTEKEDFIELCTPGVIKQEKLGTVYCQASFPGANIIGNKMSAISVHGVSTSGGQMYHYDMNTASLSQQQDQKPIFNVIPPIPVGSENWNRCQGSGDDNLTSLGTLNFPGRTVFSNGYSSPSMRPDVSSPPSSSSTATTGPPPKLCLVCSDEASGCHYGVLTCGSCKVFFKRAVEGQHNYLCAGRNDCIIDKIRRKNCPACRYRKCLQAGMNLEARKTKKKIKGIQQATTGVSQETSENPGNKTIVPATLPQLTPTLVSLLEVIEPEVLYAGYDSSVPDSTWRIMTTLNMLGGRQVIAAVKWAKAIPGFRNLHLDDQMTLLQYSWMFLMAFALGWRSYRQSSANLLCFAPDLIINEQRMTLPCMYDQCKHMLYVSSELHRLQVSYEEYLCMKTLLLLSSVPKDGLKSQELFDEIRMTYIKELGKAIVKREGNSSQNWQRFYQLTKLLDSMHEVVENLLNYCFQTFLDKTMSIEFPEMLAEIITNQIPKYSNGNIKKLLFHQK
Assay: Radioligand filter binding assay, displacement of 3[H]-dexamethasone from hGR
Details: read-out: GR Binding (% Inhibition at 1.7 μM)
Description: Dexamethasone hereafter referred to as dex was purchased from SIGMA. […] Human glucocorticoid receptors were extracted from Sf9 cells infected with a recombinant baculovirus transfer vector containing the cloned hGR genes. Recombinant baculovirus was generated utilizing the BAC-TO-BAC expression system (Life Technologies) in accordance to instruction from the supplier. The hGR coding sequences were cloned into a baculovirus transfer vector by standard techniques. The recombinant baculoviruses expressing hGR were amplified and used to infect Sf9 cells. Infected cells were harvested 48 hrs post infection. […] The concentration of hGR in the extract was measured as specific ^3[H]-dex binding with the G25-assay as described in J. Steroid Biochem. Molec. […] The extract was aliquoted and stored at −70° C.
The filter binding assay: Dilution series of the test compounds and dex as reference were made from 10 mM (1 mM dex) stock solutions in DMSO. 10 μl of the dilutions was added in duplicates to the wells. The cell extracts were diluted 10 fold in EPMo+MTG buffer (1 mM EDTA, HPO4 20 mM (pH8), 6 mM MTG). […] 110 μl of the diluted ^3[H]-dex were added to the wells. The final concentration of hGR in the experiment was estimated to 1 nM. All preparations were made in […] on ice and with +4° C. temperated buffers. The plates were incubated over night at +4° C. (15-20 hours).
The incubation was stopped by filtration through GF/B filter on the Tomtec Cellharvester. The filtration on the Tomtec Cellharvester was programmed as follows: 1) Preparation before filtration with EP buffer (1 mM EDTA 20 mM HPO4 (pH8)) 2×[Wash/Asp 0.6 sec., Asp 0.5 sec.]; 2) Prewet of GF/B filter with EP+PEI buffer (EP buffer, 0.3% Polyethylenimine) [Asp 0.8 sec.]; 3) Filtration/harvesting of the 96-well incubation plate 3×[Wash/Asp 0.6 sec., Asp 0.5 sec.]. The GF/B filter was dried for at least 1 hour at 65° C. A MeltiLex scintillation wax was melted onto the filter with the Microsealer. The filter was placed in a samplebag, which was thereafter trimmed with scissors to fit the filter cassette. The cassette were placed in the Microbeta and measured for 1 min/position, returning ccpm (corrected counts per minute).
b=((bmax−bmin)/(1+(I/IC50)^S))+bminI
The Microbeta-instrument generates the mean cpm (counts per minute) value/minute and corrects for individual variations between the detectors thus generating corrected cpm values.

Row | inhibition at 1.7 µM | Compound
1 | 96.8% | Cc1c(NS(C)(=O)=O)cccc1N(Cc1ccc(Oc2ccc(Cl)c(OCCCC(=O)NCCCC(=O)O)c2)cc1)Cc1ccc(F)cc1F [Example 320, 4-((4-(2-chloro-5-(4-(((2,4-difluorobenzyl)(2-methyl-3-((methylsulfonyl)amino)phenyl)amino)methyl)phenoxy)phenoxy)butanoyl)amino)butanoic acid]
2 | 91.8% | Cc1c(NS(C)(=O)=O)cccc1N(Cc1ccc(OCc2cc3c(cc2Cl)OCO3)cc1)Cc1ccc(F)cc1F [Example 157, N-{3-[{4-[(6-chloro-1,3-benzodioxol-5-yl)methoxy]benzyl}(2,4-difluorobenzyl)amino]-2-methylphenyl}methanesulfonamide]
3 | 89.4% | Cc1c(NS(C)(=O)=O)cccc1N(Cc1ccccc1)Cc1ccc(Oc2cccc(OC3CCN(C)C3)c2)cc1 (centres unmarked) [Example 292, N-{3-[benzyl(4-{3-[(1-methylpyrrolidin-3-yl)oxy]phenoxy}benzyl)amino]-2-methylphenyl}methanesulfonamide]
4 | 96.9% | COC(=O)NCCOc1cccc(Oc2ccc(CN(Cc3ccccc3)c3cccc(NS(C)(=O)=O)c3C)cc2)c1 [Example 82, methyl 2-(3-{4-[(benzyl{2-methyl-3-[(methylsulfonyl)amino]phenyl}amino)methyl]phenoxy}phenoxy)ethylcarbamate]
5 | 96.3% | Cc1c(NS(C)(=O)=O)cccc1N(Cc1ccccc1)Cc1ccc(C(=O)c2cccc(OCC3CCOC3)c2)cc1 (centres unmarked) [Example 245, N-[3-(benzyl{4-[3-(tetrahydrofuran-3-ylmethoxy)benzoyl]benzyl}amino)-2-methylphenyl]methanesulfonamide]
6 | 92% | Cc1c(NS(C)(=O)=O)cccc1N(Cc1ccccc1)Cc1ccc(C(=O)c2cccc(OCC3CCCC3)c2)cc1 [Example 243, N-[3-(benzyl{4-[3-(cyclopentylmethoxy)benzoyl]benzyl}amino)-2-methylphenyl]methanesulfonamide]
7 | 91.2% | Cc1c(NS(C)(=O)=O)cccc1N(Cc1ccccc1)Cc1ccc(Oc2ccc(OCC(=O)N[C@H](C(=O)O)C(C)C)cc2)cc1 [Example 273, N-[(4-{4-[(benzyl{2-methyl-3-[(methylsulfonyl)amino]phenyl}amino)methyl]phenoxy}phenoxy)acetyl]-L-valine]
8 | 92.2% | Cc1c(NS(C)(=O)=O)cccc1N(Cc1ccccc1)Cc1ccc(Oc2ccc(OCCCCC(=O)N3CCC[C@H]3C(=O)O)cc2)cc1 [Example 267, 1-[5-(4-{4-[(benzyl{2-methyl-3-[(methylsulfonyl)amino]phenyl}amino)methyl]phenoxy}phenoxy)pentanoyl]-L-proline]
9 | 89.2% | C=Cc1c(NS(C)(=O)=O)cccc1N(Cc1ccccc1)Cc1ccccc1 [Example 44, N-[3-(dibenzylamino)-2-vinylphenyl]methanesulfonamide]
10 | 91.5% | Cc1c(NS(C)(=O)=O)cccc1N(Cc1ccccc1)Cc1ccc(Oc2ccc(OCCCCC(=O)NCC(=O)O)cc2)cc1 [Example 261, N-[5-(4-{4-[(benzyl{2-methyl-3-[(methylsulfonyl)amino]phenyl}amino)methyl]phenoxy}phenoxy)pentanoyl]glycine]
11 | 75.9% | Cc1c(NS(C)(=O)=O)cccc1N(Cc1ccccc1)Cc1ccc([N+](=O)[O-])cc1 [Example 8, N-{3-[benzyl(4-nitrobenzyl)amino]-2-methylphenyl}methanesulfonamide]
12 | 96.7% | Cc1c(NS(C)(=O)=O)cccc1N(Cc1ccccc1)Cc1ccc(C(=O)c2cccc(OCCN3CCCC3=O)c2)cc1 [Example 248, N-{3-[benzyl(4-{3-[2-(2-oxopyrrolidin-1-yl)ethoxy]benzoyl}benzyl)amino]-2-methylphenyl}methanesulfonamide]
13 | 92.8% | Cc1c(NS(C)(=O)=O)cccc1N(Cc1ccccc1)Cc1ccc(Oc2ccc(OCCCC(=O)N(C)CC(=O)O)cc2)cc1 [Example 254, N-[4-(4-{4-[(benzyl{2-methyl-3-[(methylsulfonyl)amino]phenyl}amino)methyl]phenoxy}phenoxy)butanoyl]-N-methylglycine]
14 | 96.3% | Cc1c(NS(C)(=O)=O)cccc1N(Cc1ccc(Oc2ccc(Cl)c(OCC(=O)NCC(=O)O)c2)cc1)Cc1ccc(F)cc1F [Example 316, N-((2-chloro-5-(4-(((2,4-difluorobenzyl)(2-methyl-3-((methylsulfonyl)amino)phenyl)amino)methyl)phenoxy)phenoxy)acetyl)glycine]
15 | 90.1% | Cc1c(NS(C)(=O)=O)cccc1N(Cc1ccccc1)Cc1ccc(Oc2cccc(OC[C@@H]3CCC(=O)N3)c2)cc1 [Example 278, N-(3-{benzyl[4-(3-{[(2S)-5-oxopyrrolidin-2-yl]methoxy}phenoxy)benzyl]amino}-2-methylphenyl)methanesulfonamide]
16 | 87.7% | Cc1c(NS(C)(=O)=O)cccc1N(Cc1ccccc1)Cc1ccc(Oc2cccc(OC[C@@H]3CCCN3)c2)cc1 [Example 291, N-{3-[benzyl(4-{3-[(2S)-pyrrolidin-2-ylmethoxy]phenoxy}benzyl)amino]-2-methylphenyl}methanesulfonamide]
17 | 75.2% | Cc1c(NS(=O)(=O)N(C)C)cccc1N(Cc1ccccc1)Cc1ccccc1 [Example 5, N′-[3-(dibenzylamino)-2-methylphenyl]-N,N-dimethylsulfamide]
18 | 89.2% | Cc1c(NS(C)(=O)=O)cccc1N(Cc1ccccc1)Cc1ccc(Oc2ccc(OCC(=O)N[C@@H](CC(N)=O)C(=O)O)cc2)cc1 [Example 276, N˜2˜-[(4-{4-[(benzyl{2-methyl-3-[(methylsulfonyl)amino]phenyl}amino)methyl]phenoxy}phenoxy)acetyl]-L-asparagine]
19 | 75.6% | Cc1c(NS(C)(=O)=O)cccc1N(Cc1ccccc1)Cc1ccc2c(c1)OCCO2 [Example 16, N-{3-[benzyl(2,3-dihydro-1,4-benzodioxin-6-ylmethyl)amino]-2-methylphenyl}methanesulfonamide]
20 | 96.1% | Cc1c(NS(C)(=O)=O)cccc1N(Cc1ccccc1)Cc1ccc(Oc2ccc(OCCCCC(=O)O)cc2)cc1 [Example 234, 5-(4-{4-[(benzyl{2-methyl-3-[(methylsulfonyl)amino]phenyl}amino)methyl]phenoxy}phenoxy)pentanoic acid]
21 | 89.5% | Cc1c(NS(C)(=O)=O)cccc1N(Cc1ccccc1)Cc1ccc(Oc2ccc(OCCCCC(=O)N(C)CC(=O)O)cc2)cc1 [Example 264, N-[5-(4-{4-[(benzyl{2-methyl-3-[(methylsulfonyl)amino]phenyl}amino)methyl]phenoxy}phenoxy)pentanoyl]-N-methylglycine]
22 | 90.9% | Cc1c(NS(C)(=O)=O)cccc1N(Cc1ccccc1)Cc1ccc(C(=O)c2cccc(OCc3ccccc3)c2)cc1 [Example 247, N-[3-(benzyl{4-[3-(benzyloxy)benzoyl]benzyl}amino)-2-methylphenyl]methanesulfonamide]
23 | 92.6% | Cc1c(NS(C)(=O)=O)cccc1N(Cc1ccccc1)Cc1ccc(Oc2cccc(OC3CCC(C(=O)O)CC3)c2)cc1 (centres unmarked) [Example 286, 4-(3-{4-[(benzyl{2-methyl-3-[(methylsulfonyl)amino]phenyl}amino)methyl]phenoxy}phenoxy)cyclohexanecarboxylic acid]
